In patent US9845296B2 (dated 2017) one finds melting point data, which are given here for four compounds.

One may read the melting point as the temperature of the solid-liquid transition. With `CN(C)c1cc2[nH]c(C3CCCCC3)nc2cc1N`, the melting point lay in the range of 135 to 137 °C.
Consider `CN(C)c1cc2[nH]c(C3CCCCC3)nc2cc1NC(=O)c1ccc(OC(F)F)cc1`, for which the melting point lay within 183 to 185 °C.
The figure for `CN(C)c1cc2[nH]c(C3CCCCC3)nc2cc1NC(=O)c1ccc(F)cc1` is 196 to 197 °C; for `COc1cccc(C(=O)Nc2cc3nc(C4CCCCC4)[nH]c3cc2N(C)C)c1OC` it is 173 to 174 °C.
